# Reference: patent US6426330B1, “Satiety inducing composition comprising Neuropeptide Y analogues and methods of inducing satiety and treating a disease or condition associated with it” (East Carolina University, priority 1995, dated 2002)
# Square brackets hold non-standard residues; d marks the D form. Ends that are not written are not given here.
# Tested on: normotensive Sprague-Dawsley rats
# Test: In vivo activity: blood pressure and heart rate after intravenous dosing in catheterised rats
# Set-up: species or system rat
# Protocol: Male Sprague-Dawley rats obtained from Charles River Laboratories, Wilmington, Mass., and weighing 276-300 g, were group housed at 22° C. and kept on 12 hour light/dark cycle. Food and water were provided ad lib.
# Animals were anesthetized with sodium pentobarbital (65 mg/kg) and under sterile conditions a one-inch incision was made in the fold of the left leg to expose the femoral blood vessels. Two lengths of PE-50 tubing filled with 10% heparin were inserted into the left femoral artery and left femoral vein for measurement of blood pressure and for drug delivery, respectively. The tubings were tunneled under the skin and exposed through the mid-scapular region. Animals were allowed at least 24 hours recovery prior to experiments.
# A force transducer (Spectramed Model P23XL, Grass Instruments, Quincy, Mass., USA), and tachograph (Model 7P44D, Grass Instruments) was used for recording of systolic and diastolic pressures and heart rate from the femoral artery catheter. Patency of catheters was verified by flushing with either saline or 10% heparin.
# A dose of either 30, 100, 500, 800 or 1000 nM/kg ([…]) of NPY27-36 (D-Tyr^27,36, D-Thr^32) (prepared as described in Example 1 above), or saline was delivered to the animal via the catheter in the left femoral vein. Changes in systolic and diastolic pressures and heart rater were recorded from the catheter in the left femoral artery over a 10 minute time interval.
# [1] = given intraveneously, doses 30-1000 nM/kg, recorded over 10 minutes, normotensive rats
substance,measurement,setting,value
"[dY]INLI[dT]RQR[dY]-NH2 [NPY27-36 (D-Tyr^27,36, D-Thr^32)]",changes in mean arterial pressure and heart rate vs saline,dose 30 nM/kg i.v.,failed to produce changes that were significantly different from saline treatment
same,changes in mean arterial pressure and heart rate vs saline,dose 100 nM/kg i.v.,failed to produce changes that were significantly different from saline treatment
same,mean arterial pressure vs saline-treated controls,dose 500 nM/Kg i.v.,significantly different decreases
same,heart rate vs saline controls,dose 500 nM/kg i.v.,significantly different increases
same,mean arterial pressure vs saline-treated controls,dose 800 nM/Kg i.v.,significantly different decreases
same,mean arterial pressure vs saline-treated controls,dose 1000 nM/Kg i.v.,significantly different decreases
same,heart rate vs saline controls,dose 1000 nM/kg i.v.,significantly different increases
same,heart rate,[1],increase
same,mean arterial pressure,[1],dose-dependent decrease
